In ChEMBL document CHEMBL2375236, “Strategic use of conformational bias and structure based design to identify potent JAK3 inhibitors with improved selectivity against the JAK family and the kinome” (Bioorg Med Chem Lett, 2013):
In brackets after ≈: the same amount, converted by molar mass.

Assays:
[1] = molecular target: T1, Tyrosine-protein kinase JAK1 (Homo sapiens, UniProt P23458)
[2] = molecular target: T2, Tyrosine-protein kinase JAK3 (Homo sapiens, UniProt P52333)
T2 sequence (P52333 whole entry): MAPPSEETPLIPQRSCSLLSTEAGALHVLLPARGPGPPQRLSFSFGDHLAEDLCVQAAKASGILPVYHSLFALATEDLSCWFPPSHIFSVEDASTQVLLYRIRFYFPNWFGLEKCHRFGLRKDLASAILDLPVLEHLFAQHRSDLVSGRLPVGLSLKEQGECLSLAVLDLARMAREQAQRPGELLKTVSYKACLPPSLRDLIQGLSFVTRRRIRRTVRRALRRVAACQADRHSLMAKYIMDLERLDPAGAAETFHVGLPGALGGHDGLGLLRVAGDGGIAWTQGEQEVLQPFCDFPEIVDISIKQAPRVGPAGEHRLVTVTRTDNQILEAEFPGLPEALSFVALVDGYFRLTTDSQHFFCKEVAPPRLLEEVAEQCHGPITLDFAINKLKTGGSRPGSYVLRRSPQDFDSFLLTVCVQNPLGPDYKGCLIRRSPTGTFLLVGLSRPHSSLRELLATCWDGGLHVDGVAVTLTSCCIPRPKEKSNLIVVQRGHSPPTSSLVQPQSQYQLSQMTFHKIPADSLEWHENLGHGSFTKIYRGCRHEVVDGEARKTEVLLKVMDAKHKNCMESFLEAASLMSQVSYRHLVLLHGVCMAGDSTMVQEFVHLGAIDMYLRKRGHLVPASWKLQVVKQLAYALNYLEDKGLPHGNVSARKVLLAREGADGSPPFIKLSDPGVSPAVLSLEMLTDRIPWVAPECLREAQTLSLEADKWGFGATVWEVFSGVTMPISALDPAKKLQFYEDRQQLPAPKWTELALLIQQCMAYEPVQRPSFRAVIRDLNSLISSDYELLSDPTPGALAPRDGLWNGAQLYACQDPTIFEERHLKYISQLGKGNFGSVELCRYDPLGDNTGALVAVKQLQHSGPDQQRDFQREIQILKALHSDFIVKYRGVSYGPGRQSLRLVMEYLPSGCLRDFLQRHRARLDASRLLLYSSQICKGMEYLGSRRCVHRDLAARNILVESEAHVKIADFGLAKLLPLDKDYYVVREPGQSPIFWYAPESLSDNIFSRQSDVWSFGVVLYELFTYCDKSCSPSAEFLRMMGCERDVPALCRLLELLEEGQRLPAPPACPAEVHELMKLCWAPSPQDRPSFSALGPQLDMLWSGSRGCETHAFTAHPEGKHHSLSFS

[3] = molecular target: Non-receptor tyrosine-protein kinase TYK2 (Homo sapiens, UniProt P29597)
Description: Binding affinity to TYK2 (unknown origin) by ligand displacement assay

[4] = molecular target: T1, Tyrosine-protein kinase JAK1; remark: listed apart in the source
Description: Binding affinity to JAK1 (unknown origin) by ligand displacement assay

Structure (SMILES) | solubility (physchem) [µg/mL] | IC50 [1] [nM] | also measured
C[C@@H](NC(=O)c1c[nH]c2ncc(C3CC3)nc12)C(=O)N1CC(C#N)C1 | 277 (≈ 819 µM) |  | 
COc1cc(-c2cnc3[nH]cc(C(=O)N[C@H](C)C(=O)N4CC(C#N)C4)c3n2)cc(OC)c1OC |  | 7.4 | 
CCn1cc(-c2cnc3[nH]cc(C(=O)N[C@H](C)C(=O)N4CC(C#N)C4)c3n2)cn1 | 366 (≈ 933 µM) | 23 | IC50 [2]: 5.2 nM
C[C@@H](NC(=O)c1c[nH]c2ncc(-c3cn(C)c4cc(Cl)ccc34)nc12)C(=O)N1CC(C#N)C1 | < 1 | 1 | 
C[C@@H](NC(=O)c1c[nH]c2ncc(-c3nn(C)c4cc(Cl)ccc34)nc12)C(=O)N1CC(C#N)C1 | < 1 | 31 | Kd [3]: 350 nM; Kd [4]: 73 nM
C[C@@H](NC(=O)c1c[nH]c2ncc(-c3nn(C)c4ccc(Cl)cc34)nc12)C(=O)N1CC(C#N)C1 |  | 61 | 
C[C@@H](NC(=O)c1c[nH]c2ncc(-c3nn(C)c4ccccc34)nc12)C(=O)N1CC(C#N)C1 |  | 22 | 
C[C@@H](NC(=O)c1c[nH]c2ncc(-c3nn(C)c4cc(F)ccc34)nc12)C(=O)N1CC(C#N)C1 | < 1 | 17 | 
C[C@@H](NC(=O)c1c[nH]c2ncc(-c3nn(C)c4cc(C#N)ccc34)nc12)C(=O)N1CC(C#N)C1 | < 1 | 51 | 
COc1ccc2c(-c3cnc4[nH]cc(C(=O)N[C@H](C)C(=O)N5CC(C#N)C5)c4n3)nn(C)c2c1 | < 1 | 38 | 
C[C@@H](NC(=O)c1c[nH]c2ncc(-c3nn(C)c4cc(C5CC5)ccc34)nc12)C(=O)N1CC(C#N)C1 |  | 10 | 
C[C@@H](NC(=O)c1c[nH]c2ncc(-c3nn(C)c4cc(C(C)(C)C)ccc34)nc12)C(=O)N1CC(C#N)C1 |  | 12 | 
C[C@@H](NC(=O)c1c[nH]c2ncc(-c3nn(C)c4cc(Cl)cc(F)c34)nc12)C(=O)N1CC(C#N)C1 | < 1 |  | 
CC[C@@H](NC(=O)c1c[nH]c2ncc(-c3nn(C)c4cc(Cl)ccc34)nc12)C(=O)N1CC(C#N)C1 | < 1 | 4.6 | 
Cn1nc(-c2cnc3[nH]cc(C(=O)N[C@@H](C(=O)N4CC(C#N)C4)C4CC4)c3n2)c2ccc(Cl)cc21 |  | 0.8 | 
Cn1nc(-c2cnc3[nH]cc(C(=O)N[C@@H](C(=O)N4CC(C#N)C4)C(C)(C)C)c3n2)c2ccc(Cl)cc21 |  | 5.5 | 
C[C@@H](NC(=O)c1c[nH]c2ncc(-n3ncc4cc(Cl)ccc43)nc12)C(=O)N1CC(C#N)C1 | < 1 | 370 | 
C[C@@H](NC(=O)c1c[nH]c2ncc(-c3ncn4cc(F)ccc34)nc12)C(=O)N1CC(C#N)C1 | 39 (≈ 90.2 µM) | 16 | 
C[C@@H](NC(=O)c1c[nH]c2ncc(-c3ncn4cc(F)cc(F)c34)nc12)C(=O)N1CC(C#N)C1 | 31 (≈ 68.8 µM) | 73 | 
C[C@@H](NC(=O)c1c[nH]c2ncc(-c3cnc4cc(Cl)ccn34)nc12)C(=O)N1CC(C#N)C1 |  | 61 | 
